Data from patent EP4273147A1, “SUBSTITUTED SPIROLACTAMS, SALTS THEREOF AND THEIR USE AS HERBICIDALLY ACTIVE SUBSTANCES” (Bayer Aktiengesellschaft, priority 2022, dated 2023).

What was measured:
TRZAS [1] = assay: Pre-emergence effects on crop plants (Table D2); type: in vivo, Triticum aestivum; conditions: crop plant; application rate 80 g/ha; visual grading after ca. 3 weeks
ABUTH [2] = assay: Herbicidal post-emergence action (Table B1); type: in vivo, Abutilon theophrasti; conditions: application rate 1280 g/ha; treated at one-leaf stage; rated visually after about 3 weeks vs untreated controls (100% = plants have died, 0% = like control plants)
Procedure, shortened: (§1)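 Each pot held sandy loam sown with a single mono- or dicot weed species, grown under controlled greenhouse conditions. Test plants were sprayed at the one-leaf stage, and after about 3 weeks of further growth the percentage activity relative to untreated plants was rated visually.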

STEME [3] = assay: Herbicidal post-emergence action (Table B9); type: in vivo, Stellaria media; conditions: application rate 1280 g/ha
Protocol: (§2) Seeds of mono- and dicotyledonous weed plants were placed in plastic pots in sandy loam soil (doubly sown with in each case one species of mono- or dicotyledonous weed plants per pot), covered with soil and cultivated in a greenhouse under controlled growth conditions. 2 to 3 weeks after sowing, the test plants were treated at the one-leaf stage. […] After the test plants had been kept in the greenhouse under optimum growth conditions for about 3 weeks, the activity of the preparations was rated visually in comparison to untreated controls. For example, 100% activity = the plants have died, 0% activity = like control plants.

ALOMY [4] = assay: Herbicidal pre-emergence action (Table A9); type: in vivo, Alopecurus myosuroides; conditions: application rate 320 g/ha; visual grading after ca. 3 weeks
Procedure, shortened: (§3)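 Pots: sandy loam. Sowing: one mono- and one dicot weed species together per pot. Seeds covered with soil.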

ALOMY [5] = assay: Herbicidal pre-emergence action, section C (Table C2); type: in vivo, Alopecurus myosuroides; conditions: application rate 320 g/ha; visual grading after ca. 3 weeks
ORYZA [6] = assay: Pre-emergence effects on crop plants (Table D3); conditions: crop plant; application rate 80 g/ha; visual grading after ca. 3 weeks
VIOTR [7] = assay: Herbicidal post-emergence action, section E (Table E10); type: in vivo, Viola tricolor; conditions: application rate 320 g/ha; assessed visually after ca. 3 weeks
Source text: (§4) 2 to 3 weeks after sowing, the test plants were sprayed in the single-leaf stage.

VERPE [8] = assay: Herbicidal post-emergence action, section E (Table E9); type: in vivo, Veronica persica; conditions: application rate 320 g/ha; assessed visually after ca. 3 weeks
Source text: as §4

TRZAS [9] = assay: Post-emergence effects on crop plants (Table F2); type: in vivo, Triticum aestivum; conditions: application rate 80 g/ha, crop plant TRZAS
Source text: as §4

POLCO = assay: Herbicidal pre-emergence action, section C (Table C9); type: in vivo, Polygonum convolvulus; conditions: application rate 320 g/ha; visual grading after ca. 3 weeks
Source text: (§5) Seeds of mono- and dicotyledonous weed plants and crop plants were sown, in plastic or organic planting pots, in sandy loam and covered with soil. The compounds according to the invention, formulated in the form of wettable powders (WP) or as emulsifiable concentrates (EC), were applied to the surface of the covering soil as aqueous suspension or emulsion, with the addition of 0.5% of an additive, at an application rate of 600 1 of water/ha (converted). Following treatment, the pots were placed in a greenhouse and kept under optimum growth conditions for the test plants.

VERPE [10] = assay: Herbicidal pre-emergence action (Table A11); type: in vivo, Veronica persica; conditions: application rate 320 g/ha; visual grading after ca. 3 weeks
Procedure, shortened: as §3

ZEAMX = assay: Post-emergence effects on crop plants (Table F1); type: in vivo, Zea mays; conditions: application rate 80 g/ha, crop plant ZEAMX
Source text: as §4

BRSNW [11] = assay: Post-emergence effects on crop plants (Table F5); type: in vivo, Brassica napus; conditions: application rate 80 g/ha, crop plant BRSNW
Source text: as §4

AMARE [12] = assay: Herbicidal pre-emergence action (Table A8); type: in vivo, Amaranthus retroflexus; conditions: application rate 1280 g/ha; visual grading after ca. 3 weeks vs untreated controls (100% = plants have died off, 0% = as control plants)
Procedure, shortened: as §3

ABUTH [13] = assay: Herbicidal pre-emergence action, section C (Table C1); type: in vivo, Abutilon theophrasti; conditions: application rate 320 g/ha; visual grading after ca. 3 weeks
ECHCG [14] = assay: Herbicidal pre-emergence action (Table A2); type: in vivo, Echinochloa crus-galli; conditions: application rate 320 g/ha; visual grading after ca. 3 weeks
Procedure, shortened: as §3

LOLRI [15] = assay: Herbicidal post-emergence action (Table B5); type: in vivo, Lolium rigidum; conditions: application rate 1280 g/ha; rated visually after about 3 weeks
Protocol: as §2

AMARE [16] = assay: Herbicidal post-emergence action (Table B11); type: in vivo, Amaranthus retroflexus; conditions: application rate 1280 g/ha
Procedure, shortened: as §1

ECHCG [17] = assay: Herbicidal post-emergence action (Table B3); type: in vivo, Echinochloa crus-galli; conditions: application rate 320 g/ha; rated visually after about 3 weeks
Procedure, shortened: as §1

ABUTH [18] = assay: Herbicidal pre-emergence action (Table A1); type: in vivo, Abutilon theophrasti; conditions: application rate 320 g/ha; visual grading after ca. 3 weeks vs untreated controls (100% = plants have died off, 0% = as control plants)
Procedure, shortened: as §3

MATIN [19] = assay: Herbicidal pre-emergence action, section C (Table C8); type: in vivo, Matricaria inodora; conditions: application rate 320 g/ha; visual grading after ca. 3 weeks
Source text: as §5

LOLRI [20] = assay: Herbicidal pre-emergence action (Table A3); type: in vivo, Lolium rigidum; conditions: application rate 320 g/ha; visual grading after ca. 3 weeks
Procedure, shortened: as §3

VERPE [21] = assay: Herbicidal post-emergence action (Table B10); type: in vivo, Veronica persica; conditions: application rate 320 g/ha
Procedure, shortened: as §1

POAAN [22] = assay: Herbicidal pre-emergence action (Table A7); type: in vivo, Poa annua; conditions: application rate 320 g/ha; visual grading after ca. 3 weeks
Procedure, shortened: as §3

ALOMY [23] = assay: Herbicidal post-emergence action (Table B2); type: in vivo, Alopecurus myosuroides; conditions: application rate 320 g/ha; rated visually after about 3 weeks
Protocol: as §2

SETVI [24] = assay: Herbicidal pre-emergence action (Table A5); type: in vivo, Setaria viridis; conditions: application rate 320 g/ha; visual grading after ca. 3 weeks
Procedure, shortened: as §3

POAAN [25] = assay: Herbicidal post-emergence action (Table B7); type: in vivo, Poa annua; conditions: application rate 320 g/ha
Procedure, shortened: as §1

BRSNW [26] = assay: Pre-emergence effects on crop plants (Table D5); type: in vivo, Brassica napus; conditions: crop plant; application rate 80 g/ha; visual grading after ca. 3 weeks
MATIN [27] = assay: Herbicidal post-emergence action (Table B6); type: in vivo, Matricaria inodora; conditions: application rate 1280 g/ha; rated visually after about 3 weeks
Procedure, shortened: as §1

ALOMY [28] = assay: Herbicidal post-emergence action, section E (Table E2); type: in vivo, Alopecurus myosuroides; conditions: application rate 320 g/ha; assessed visually after ca. 3 weeks
Source text: as §4

ECHCG [29] = assay: Herbicidal pre-emergence action, section C (Table C6); type: in vivo, Echinochloa crus-galli; conditions: application rate 80 g/ha; visual grading after ca. 3 weeks
GLXMA = assay: Post-emergence effects on crop plants (Table F4); type: in vivo, Glycine max; conditions: application rate 80 g/ha, crop plant GLXMA
Source text: as §4

SETVI [30] = assay: Herbicidal post-emergence action (Table B8); type: in vivo, Setaria viridis; conditions: application rate 1280 g/ha
Procedure, shortened: as §1

ECHCG [31] = assay: Herbicidal post-emergence action, section E (Table E5); type: in vivo, Echinochloa crus-galli; conditions: application rate 80 g/ha; assessed visually after ca. 3 weeks
Source text: as §4

KCHSC = assay: Herbicidal pre-emergence action (Table A10); type: in vivo, Kochia scoparia; conditions: application rate 1280 g/ha; visual grading after ca. 3 weeks
Procedure, shortened: as §3

VIOTR [32] = assay: Herbicidal pre-emergence action, section C (Table C12); type: in vivo, Viola tricolor; conditions: application rate 80 g/ha; visual grading after ca. 3 weeks
ORYZA [33] = assay: Post-emergence effects on crop plants (Table F3); type: in vivo, Oryza sativa; conditions: application rate 320 g/ha, crop plant ORYZA
Source text: as §4

SETVI [34] = assay: Herbicidal post-emergence action, section E (Table E8); type: in vivo, Setaria viridis; conditions: application rate 320 g/ha; assessed visually after ca. 3 weeks
Source text: as §4

VERPE [35] = assay: Herbicidal pre-emergence action, section C (Table C11); type: in vivo, Veronica persica; conditions: application rate 320 g/ha; visual grading after ca. 3 weeks
Source text: as §5

STEME [36] = assay: Herbicidal pre-emergence action (Table A6); type: in vivo, Stellaria media; conditions: application rate 320 g/ha; visual grading after ca. 3 weeks
Procedure, shortened: as §3

SETVI [37] = assay: Herbicidal pre-emergence action, section C (Table C10); type: in vivo, Setaria viridis; conditions: application rate 80 g/ha; visual grading after ca. 3 weeks
MATIN [38] = assay: Herbicidal pre-emergence action (Table A4); type: in vivo, Matricaria inodora; conditions: application rate 320 g/ha; visual grading after ca. 3 weeks
Procedure, shortened: as §3

LOLRI [39] = assay: Herbicidal pre-emergence action, section C (Table C7); type: in vivo, Lolium rigidum; conditions: application rate 80 g/ha; visual grading after ca. 3 weeks

Compound: O=C1N(Cc2ccccc2F)CCCC12CCCN(Cc1ccccc1F)C2=O (racemic) [I-005]
- pre-emergence activity against TRZAS (TRZAS [1]): 20%
- post-emergence activity against ABUTH (ABUTH [2]): 90%
- post-emergence activity against STEME (STEME [3]): 90%
- pre-emergence activity against ALOMY (ALOMY [4]): 90%
- pre-emergence activity against ALOMY (ALOMY [5]): 100%
- pre-emergence activity against ORYZA (ORYZA [6]): 20%
- post-emergence activity against VIOTR (VIOTR [7]): 80%
- post-emergence activity against VERPE (VERPE [8]): 80%
- post-emergence activity against TRZAS (TRZAS [9]): 20%
- pre-emergence activity against POLCO (POLCO): 80%
- pre-emergence activity against VERPE (VERPE [10]): 100%
- post-emergence activity against ZEAMX (ZEAMX): 20%
- post-emergence activity against BRSNW (BRSNW [11]): 20%
- pre-emergence activity against AMARE (AMARE [12]): 90%
- pre-emergence activity against ABUTH (ABUTH [13]): 80%
- pre-emergence activity against ECHCG (ECHCG [14]): 100%
- post-emergence activity against LOLRI (LOLRI [15]): 90%
- post-emergence activity against AMARE (AMARE [16]): 100%
- post-emergence activity against ECHCG (ECHCG [17]): 100%
- pre-emergence activity against ABUTH (ABUTH [18]): 90%
- pre-emergence activity against MATIN (MATIN [19]): 90%
- pre-emergence activity against LOLRI (LOLRI [20]): 100%
- post-emergence activity against VERPE (VERPE [21]): 90%
- pre-emergence activity against POAAN (POAAN [22]): 100%
- post-emergence activity against ALOMY (ALOMY [23]): 90%
- pre-emergence activity against SETVI (SETVI [24]): 100%
- post-emergence activity against POAAN (POAAN [25]): 100%
- pre-emergence activity against BRSNW (BRSNW [26]): 0%
- post-emergence activity against MATIN (MATIN [27]): 100%
- post-emergence activity against ALOMY (ALOMY [28]): 90%
- pre-emergence activity against ECHCG (ECHCG [29]): 100%
- post-emergence activity against GLXMA (GLXMA): 20%
- post-emergence activity against SETVI (SETVI [30]): 100%
- post-emergence activity against ECHCG (ECHCG [31]): 80%
- pre-emergence activity against KCHSC (KCHSC): 90%
- pre-emergence activity against VIOTR (VIOTR [32]): 80%
- post-emergence activity against ORYZA (ORYZA [33]): 0%
- post-emergence activity against SETVI (SETVI [34]): 90%
- pre-emergence activity against VERPE (VERPE [35]): 80%
- pre-emergence activity against STEME (STEME [36]): 90%
- pre-emergence activity against SETVI (SETVI [37]): 100%
- pre-emergence activity against MATIN (MATIN [38]): 100%
- pre-emergence activity against LOLRI (LOLRI [39]): 80%
